Test results: PMC5057104, “The unravelling of the complex pattern of tyrosinase inhibition” (Scientific Reports, 2016)
“And” between values parts separate entries of the source, which are not always exact repeats. Equal values may be shown once. “Also recorded” adds a separate entry of the source. Read-outs that look alike come from different tables or passages of the source. Each block holds one compound with its values, some of them ahead of it.

Key:
[1] = test system: mushroom tyrosinase; settings: cited from earlier work
[2] = target: T1, TyrBm (tyrosinase from Bacillus megaterium) (Priestia megaterium, UniProt B2ZB02); experiment: biochemical; format: binding; set-up: made in house; host or cells: Escherichia coli BL21
T1 sequence (B2ZB02 1-297): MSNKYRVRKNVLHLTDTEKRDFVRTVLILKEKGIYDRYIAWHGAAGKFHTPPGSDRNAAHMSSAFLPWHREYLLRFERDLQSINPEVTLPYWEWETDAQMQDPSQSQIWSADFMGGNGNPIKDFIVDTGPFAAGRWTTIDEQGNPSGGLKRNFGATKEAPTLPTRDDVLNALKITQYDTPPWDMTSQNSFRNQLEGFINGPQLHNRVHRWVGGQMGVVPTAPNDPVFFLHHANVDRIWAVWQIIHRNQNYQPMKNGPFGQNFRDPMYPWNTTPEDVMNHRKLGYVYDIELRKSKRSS
Method: TyrBm was labeled fluorescently with a RED dye (NT-647-NHS) according to the manufacturer’s protocol (NanoTemper Technologies, Munich, Germany). Non-bound dye was removed by purification of the enzyme on a Sephadex G-25 column with buffers provided in the commercial kit. […] Approximately 10 μl of sample was loaded into hydrophilic monolith NT capillaries and the measurement was performed in a NanoTemper Monolith NT.015T instrument. The emission of the red fluorescence was recorded at a focused location of the capillary. In the same location, a microscopic temperature gradient was created using an infrared laser and the fluorescence depletion was measured. According to changes in the fluorescent thermophoresis signal and the concentrations of unlabeled inhibitor, the dissociation constant values were determined by the NanoTemper analysis software.
(b) Titration of rising concentrations of
(c) Titration of rising concentrations of L-tyrosine (0-
The reactions contained constant concentration of TyrBm
(§1) (1 picture or pasted object on this page, not shown here)

[3] = target: T1, TyrBm (tyrosinase from Bacillus megaterium); experiment: biochemical
Method: Tyrosinase inhibitory activity was determined spectrophotometrically in 96-well plates with a final volume of 200 μl. First, 50 mM PBS buffer pH 7.4 and 0.01 mM CuSO4 were mixed with 6 μg ml^−1 of purified enzyme. Then, the mixture was incubated at 40 °C for 2 minutes. […] Specific activity was calculated as the ratio of the conversion rate and the total protein content as determined by the Bradford analysis method (Bio-Rad, Israel). All measurements were performed in seven replicates.

[4] = test system: Agaricus bisporus tyrosinase; settings: HQ as substrate; cited from earlier work
[5] = target: T1, TyrBm (tyrosinase from Bacillus megaterium); settings: 1 mM L-dopa
Method: Measurements were carried out using a Hansatech Oxygraph+ electrode (Norfolk, UK) in a reaction volume of 1000 μL.
(a) Spectrophotometric recordings measured at 475 nm. All measurements were performed in heptaplicates. (b) Oxygen consumption recordings. The inset presents the oxygen […]
measurements were performed in triplicates. The reactions contained 4 µg ml-1 of purified […]
The slopes representing the activity rate are given for each graph.
as §1

[6] = target: T1, TyrBm (tyrosinase from Bacillus megaterium)
Method: The formation of HBP was monitored by measuring the absorbance at 475 nm[26].
Batel Deria,§, Margarita Kanteeva,§, Mor Goldfedera, Daniel Lecinab, Victor Guallarb,c,
Noam Adird, and Ayelet Fishmana,†
presence of reducing agents measured at 475 nm.
increasing concentrations of L-dopa (0-3 mM).
as the substrate in the presence of increasing concentrations of H2O2 (0-90 mM).
reactions contained 6 µg ml-1 of purified TyrBm, 50 mM PBS buffer pH 7.4 and 0.01 mM
as §1

[7] = target: T1, TyrBm (tyrosinase from Bacillus megaterium); experiment: Kinetic analysis of tyrosinase (Lineweaver-Burk plots); format: biochemical; set-up: made in house; host or cells: Escherichia coli BL21
Method: All measurements were performed in seven replicates.
The inhibitor concentrations were mentioned above. The inhibition kinetics module of Sigma Plot 13.0 software was used (Systat Software, Inc., Richmond, CA, USA). All measurements were performed in 5-replicates.

Compound: O=c1cccccc1O [Tropolone]
Inhibition mode [1]: mixed

Kd ([2]; read-out: KD): 0.1 ± 0.03 µM
Compound: N[C@@H](Cc1ccc(O)cc1)C(=O)O [L-tyrosine]

Compound: Oc1ccc(O)cc1 [HQ, hydroquinone]
IC50 [3]: 32 ± 2 µM
Km [4]: 250 µM
activity of TyrBm with L-dopa and HQ higher than with L-dopa alone ([5]; oxygen consumption measurements, 0.1 mM HQ): 8%
effect on TyrBm activity on L-dopa ([5]; spectrophotometric and oxygen consumption recordings, 0.1 mM compound): enhances activity
Kd [2]: 9 ± 1 µM
dissociation constant higher than L-tyrosine [2]: 90 fold
Vmax ([6]; HQ as substrate in the presence of H2O2 (100 mM)): 19 µmol/min/mg
activity of TyrBm with L-dopa and HQ higher than with L-dopa alone ([6]; absorbance readings at 475 nm, 1 mM L-dopa, 0.1 mM HQ): 17%
TyrBm activity with HQ as a sole substrate ([6]; several hours, without H2O2 or L-dopa, visual, vs control without enzyme): low activity was visually observed
Inhibition mode ([7]; diphenolase activity, substrate L-dopa): no inhibition; also recorded: does not inhibit
Inhibition mode ([7]; monophenolase activity, substrate L-tyrosine): competitive
Ki ([7]; substrate L-tyrosine): 40 ± 10 µM
Vmax (apparent, in presence of inhibitor) ([7]; substrate L-tyrosine): 9.0 µmol/min/mg and 9.0 ± 0.5 µmol/min/mg
kcat (in presence of inhibitor) ([7]; substrate L-tyrosine): 5.3 s⁻¹
IC50 with L-dopa higher in comparison to L-tyrosine [1]: 80 fold
Ki ([1]; competitive, ref 25 Chawla et al.): 83 µM
IC50 ([1]; monophenols): 33.5 µM
